According to patent publication US5077286A, “Beta-lactam derivatives of the 4-acylcephem sulphone and 3-acylpenam sulphone-type” (Farmitalia Carlo Erba S.r.l., priority 1988, dated 1991):

How the values were obtained:
[1] = Chemical stability at 37° C., 0.05M pH 7.4 phosphate buffer (HPLC, time course of starting material depletion); format: physicochemical; details: 0.05m phosphate buffer, 5% DMSO, 10 mM initial conc., read-out: Chemical stability t1/2 (converted)
Procedure: (a) Chemical stability at 37° C., 0.05M pH 7.4 phosphate buffer (5% DMSO as solubilizing vehicle) was determined by following the time course of starting material depletion ([…] kinetics; 10 mM initial conc.) by HPLC analysis (stationary phase Whatman Partisphere 5 C18, 110×4.7 mm i.d., mobile phase A, pH 2.5 0.1M phosphate buffer; mobile phase B, 60:40 phase A/MeCN; UV detection at λ=254 nm;

[2] = target: T1, human leukocyte elastase (HLE) (Homo sapiens, UniProt P08246); experiment: HLE-inhibition kinetic parameters (fluorescence, release of 7-amino-4-methylcoumarin from peptide substrate); format: biochemical; details: 37° C., 0.027M pH 7.4 phosphate buffer, 1% DMSO, 1% MeCN, NaCl (I=0.15); for Ki: read-out: HLE-inhibition kinetic parameters: Ki^ss (apparent dissociation constant of HLE-inhibitor complex at steady state); for koff: read-out: HLE-inhibition kinetic parameters: Koff (dissociation rate); for kon: read-out: HLE-inhibition kinetic parameters: Kon (rate of formation of the HLE complex)
T1 construct: purchased Calbiochem Lot 702738
T1 sequence (P08246 30-267): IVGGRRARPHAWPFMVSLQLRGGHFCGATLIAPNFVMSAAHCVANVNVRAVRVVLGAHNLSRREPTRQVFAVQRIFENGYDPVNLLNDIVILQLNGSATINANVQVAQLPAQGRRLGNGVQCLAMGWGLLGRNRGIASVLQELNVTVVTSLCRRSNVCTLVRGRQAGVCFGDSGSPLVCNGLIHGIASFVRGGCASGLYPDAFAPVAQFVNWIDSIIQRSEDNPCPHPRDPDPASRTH
Procedure: (b) Kinetic parameters of HLE (Calbiochem. Lot 702738) were determined at 37° C., 0.027M pH 7.4 phosphate buffer, 1% DMSO, 1% MeCN, NaCl (I=0.15), by monitoring the release of 7-amino-4-methylcoumarin (fluorence detection) from N-methoxysuccinyl-alanyl-propyl-valyl-7-amido-4-methylcoumarin as the substrate, according to the equations: [formula] wherein: [P], [I], [S]=product, inhibitor, and substrate concentration
Km=Michaelis constant for the enzyme-substrate pair (independently determined under the same experimental conditions).

Compound | half-life at 10000 µM [1] [h] | Ki [2] [µM] | koff [2] [s⁻¹] | kon [2] [M⁻¹ s⁻¹]
CO[C@H]1C(=O)N2C(C(=O)C(C)(C)C)=C(COC(C)=O)CS(=O)(=O)[C@H]12 [Compound 51, 3-Acetoxymethyl-4-tert-butylcarbonyl-(7α)-methoxy-3-cephem 1,1-dioxide] | 19.3 | 0.011 | 0.0026 | 20000
CO[C@H]1C(=O)N2C(C(=O)OC(C)(C)C)=C(COC(C)=O)CS(=O)(=O)[C@H]12 [Reference] | 3.2 | 0.0184 | 0.0035 | 9000
